Assay results from patent publication US20220259221A1, “CANNABINOID DERIVATIVES” (CANOPY GROWTH CORPORATION, priority 2019, published 2022).

How the values were obtained:
human CB2 receptor = target: T1, human CB2 receptor (Homo sapiens, UniProt P34972); test: CB2 radioligand ([3H]CP55,940) competitive binding assay; settings: for Selectivity CB2: fold difference in binding between CB1 and CB2, shown in the column of the receptor with higher affinity, 1.00 in both = about the same affinity
T1 construct: host or cells: CHO-K1 (Chinese hamster ovary) cells, stably transfected; membranes prepared in house
Experimental: Compounds of the present disclosure were tested for CB1 receptor binding affinity and for CB2 receptor binding affinity. As used herein, “binding affinity” is represented by the IC50 value, which was experimentally determined as described herein. The lower the IC50 value the higher the binding affinity. A compound of the present disclosure may be said to have “binding selectivity” if it has a higher binding affinity for one receptor compared to the other.
The membranes were prepared from CHO-K1 (Chinese hamster ovary) cells stably transfected with the human CB2 receptor (Cat. #ES-111-C; Perkin Elmer, Boston, Mass.). The cells were grown adherently and maintained in Ham's F12 medium containing 10% fetal bovine serum (FBS), penicillin, streptomycin and geneticin (G418) at 37° C. in a humid atmosphere of 5% CO2 following the manufacturer's instructions.
For membrane preparation the cells were washed with PBS and scraped off the plates in cold homogenization buffer (25 mM HEPES (pH 7.4), 2 mM EDTA) containing protease inhibitor cocktail (Sigma Cat. #P8340). The cell suspension was homogenized with a Pro-PK-01200D Polytron Homogenizer (Pro Scientific) and then centrifuged for 30 min at 120,000× g. The supernatant was discarded and the pellet was re-suspended in the homogenization buffer and stored at −80° C. until the time of use.
In this experiment, 3H radiolabeled CP55,940, i.e. [3H]CP55,940 (Perkin Elmer, Boston, Mass.), was used as a radioligand for the CB2 receptor to determine the binding affinity of compounds for the CB2 receptor (Scheme 4; above).
The competition binding experiments (single dose and dose-response) were performed by incubating 0.6 nM of [3H]CP55,940 (specific activity 101 Ci/mmol, Perkin Elmer) and different concentrations of compounds disclosed herein with membranes prepared as above from CHO-K1 cells expressing human CB2 receptor (1 μg of protein/well), 50 mM Tris-HCl (pH 7.4), 5 mM MgCl2, 1 mM CaCl2, and 2 mg/mL BSA.
For the single dose experiments, the compound stocks (usually 10 mM in DMSO) were diluted to working stocks in the binding buffer to give the final compound concentrations of 10 μM and 1 μM. For the dose-response experiments the test compounds were sequentially diluted to provide the desired concentration range for the IC50 determination. In each case the compounds were pre-incubated with the membrane for 20 min, before adding the radioligand.
After incubation with the radioligand for 60 min at 37° C., the incubation was terminated by rapid filtration of assay mixture through MultiScreen®HTS^+ 96-well filter plates (Millipore, Cat. #MSFCNXB), pre-soaked for 60 min with 50 mM Tris-HCl (pH 7.4) containing 0.33% polyethylenimine (PEI). The nonspecific binding (NSB) was determined in the presence of 10 μM unlabelled CP55,940. After drying the filter plate at 50° C. for at least 60 min, the filter-bound radioactivity was determined by scintillation spectrometry using the 1450 MicroBeta Plate Counter (Perkin Elmer, Boston, Mass.). From the dose-response experiments, the IC50 values were determined (see Table 1, CB2 IC50).

human CB1 receptor [1] = target: T2, human CB1 receptor (Homo sapiens, UniProt P21554); test: biochemical; assay type: binding; design: host or cells: CHO-K1 (Chinese hamster ovary) cells, stably transfected; membranes prepared in house; settings: for Selectivity CB1: fold difference in binding between CB1 and CB2, shown in the column of the receptor with higher affinity, 1.00 in both = about the same affinity
human CB1 receptor [2] = target: T2, human CB1 receptor; test: PathHunter β-Arrestin functional assay, CB1 receptor, antagonist mode; assay type: cell-based
Source text: (§1) In the PathHunter® β-Arrestin system from DiscoveRx (Eurofins, Fremont, Calif.), a small peptide, the ProLink™ (PK), is fused to the intracellular sequence of a GPCR target, and a complementing peptide, the enzyme acceptor (EA) fragment, is fused to β-arrestin. After binding to its specific ligand, the GPCR target recruits β-arrestin, forcing the complementation of the two β-galactosidase enzyme fragments (EA and PK) to produce a functional β-galactosidase enzyme. The enzyme activity, and thus the amount of ligand bound to the GPCR, is detected with a single addition of a reagent cocktail to lyse the cells and produce a chemiluminescent signal before being analyzed using a traditional plate reader.
(§2) PathHunter® CHO-K1 CNR1 β-Arrestin cells (DiscoverRx, cat. Number 93-0959C2) stably expressing CB1 receptor (CB1R) were grown in Ham's F12 medium containing 10% fetal bovine serum (FBS), 1% penicillin/streptomycin, 300 μg/mL Hygromycin B and 800 μg/mL geneticin (G418) and maintained in 37° C. incubators at 5% CO2. […]
(§3) The incubation was terminated by adding the detection reagent (19 parts of 1% CHAPS, 5 parts Emerald-II and 1 part Galacton-Star), equivalent to 50% of the assay volume to each wells. Plates were incubated for 1 hour in the dark at room temperature, followed by chemiluminescence detection using a microplate reader.
(§4) Data were analysed by generating nonlinear regression curves. […]

human CB1 receptor [3] = target: T2, human CB1 receptor; test: PathHunter β-Arrestin functional assay, CB1 receptor, agonist mode; assay type: cell-based
Source text: as §1, §2, §3, §4

T2 sequence (P21554 whole entry): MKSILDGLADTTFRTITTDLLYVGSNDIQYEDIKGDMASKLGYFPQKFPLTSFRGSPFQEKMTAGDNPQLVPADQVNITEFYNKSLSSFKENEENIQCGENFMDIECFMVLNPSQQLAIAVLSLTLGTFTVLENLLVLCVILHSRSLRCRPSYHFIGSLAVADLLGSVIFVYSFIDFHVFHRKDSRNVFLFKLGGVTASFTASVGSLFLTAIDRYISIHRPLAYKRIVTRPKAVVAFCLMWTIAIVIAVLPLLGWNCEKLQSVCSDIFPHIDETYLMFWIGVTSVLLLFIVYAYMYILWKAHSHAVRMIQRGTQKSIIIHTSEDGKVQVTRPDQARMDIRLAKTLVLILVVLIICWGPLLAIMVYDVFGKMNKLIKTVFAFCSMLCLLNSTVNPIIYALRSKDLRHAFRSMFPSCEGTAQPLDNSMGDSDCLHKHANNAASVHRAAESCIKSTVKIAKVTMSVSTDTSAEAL
T1 sequence (P34972 whole entry): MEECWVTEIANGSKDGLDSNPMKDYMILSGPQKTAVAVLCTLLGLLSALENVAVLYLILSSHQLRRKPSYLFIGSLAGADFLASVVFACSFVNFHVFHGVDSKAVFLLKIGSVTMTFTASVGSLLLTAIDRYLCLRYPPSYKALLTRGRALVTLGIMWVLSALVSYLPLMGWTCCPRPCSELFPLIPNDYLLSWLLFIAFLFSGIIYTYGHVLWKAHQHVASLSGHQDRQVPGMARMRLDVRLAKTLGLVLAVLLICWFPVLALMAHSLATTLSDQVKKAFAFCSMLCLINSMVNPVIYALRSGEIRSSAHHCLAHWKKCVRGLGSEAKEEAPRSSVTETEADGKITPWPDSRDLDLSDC

Structure (SMILES)	IC50 (human CB2 receptor)	Selectivity CB2 (human CB2 receptor)	IC50 (human CB1 receptor [1])	Selectivity CB1 (human CB1 receptor [1])	IC50 (human CB1 receptor [2])	relative inhibition in comparison to rimonabant (human CB1 receptor [2]; antagonist mode, normalized to rimonabant)	EC50 (human CB1 receptor [3])	relative efficacy in comparison to CP55,940 (human CB1 receptor [3]; agonist mode, normalized to CP55,940)
CCCCCc1cc2c(c3c1C(=O)OCO3)[C@@H]1C=C(C)CC[C@H]1C(C)(C)O2 [Compound 1b, 8,8,11-trimethyl-5-pentyl-8a,9,10,12a-tetrahydro-4H,8H-benzo[c][1,3]dioxino[4,5-f]chromen-4-one]	< 500 nM	1.80 fold	500 to 990 nM	–	–	–	–	–
CCCCCc1cc2c(c3c1C(=O)OC(C)(C)O3)[C@@H]1C=C(C)CC[C@H]1C(C)(C)O2 [Compound 2b, 2,2,8,8,11-pentamethyl-5-pentyl-8a,9,10,12a-tetrahydro-4H,8H-benzo[c][1,3]dioxino[4,5-f]chromen-4-one]	< 500 nM	1.03 fold	< 500 nM	–	–	–	–	–
CCCCCc1cc2c(c3c1C(=O)OC(c1ccccc1)O3)[C@@H]1C=C(C)CC[C@H]1C(C)(C)O2 (stereo partly shown) [Compound 3b, 8,8,11-trimethyl-5-pentyl-2-phenyl-8a,9,10,12a-tetrahydro-4H,8H-benzo[c][1,3]dioxino[4,5-f]chromen-4-one]	1000 to 4990 nM	–	1000 to 4990 nM	1.62 fold	–	–	–	–
CCCCCc1cc2c(c3c1C(=O)OC(CC(C)=O)(c1ccccc1)O3)[C@@H]1C=C(C)CC[C@H]1C(C)(C)O2 (stereo partly shown) [Compound 12b, 8,8,11-trimethyl-2-(2-oxopropyl)-5-pentyl-2-phenyl-8a,9,10,12a-tetrahydro-4H,8H-benzo[c][1,3]dioxino[4,5-f]chromen-4-one]	> 5000 nM	1.33 fold	> 5000 nM	–	–	–	–	–
CCCCCc1cc2c(c3c1C(=O)OC(CC(C)=O)(c1ccc(F)cc1)O3)[C@@H]1C=C(C)CC[C@H]1C(C)(C)O2 (stereo partly shown) [Compound 13b, 2-(4-fluorophenyl)-8,8,11-trimethyl-2-(2-oxopropyl)-5-pentyl-8a,9,10,12a-tetrahydro-4H,8H-benzo[c][1,3]dioxino[4,5-f]chromen-4-one]	1000 to 4990 nM	1.00 fold	1000 to 4990 nM	1.00 fold	–	–	–	–
CCCCCc1cc2c(c3c1C(=O)OC(CC(C)=O)O3)[C@@H]1C=C(C)CC[C@H]1C(C)(C)O2 (stereo partly shown) [Compound 14b, 8,8,11-trimethyl-2-(2-oxopropyl)-5-pentyl-8a,9,10,12a-tetrahydro-4H,8H-benzo[c][1,3]dioxino[4,5-f]chromen-4-one]	1000 to 4990 nM	–	1000 to 4990 nM	2.69 fold	–	–	–	–
CCCCCc1cc2c(c3c1C(=O)OC(C)O3)[C@@H]1C=C(C)CC[C@H]1C(C)(C)O2 (stereo partly shown) [Compound 16b, 2,8,8,11-tetramethyl-5-pentyl-8a,9,10,12a-tetrahydro-4H,8H-benzo[c][1,3]dioxino[4,5-f]chromen-4-one]	< 500 nM	–	< 500 nM	1.50 fold	~3000 nM	about 35%	~252 nM	about 7%
CCCCCc1cc2c(c3c1C(=O)OC(CC)O3)[C@@H]1C=C(C)CC[C@H]1C(C)(C)O2 (stereo partly shown) [Compound 17b, 2-ethyl-8,8,11-trimethyl-5-pentyl-8a,9,10,12a-tetrahydro-4H,8H-benzo[c][1,3]dioxino[4,5-f]chromen-4-one]	< 500 nM	12.73 fold	1000 to 4990 nM	–	–	–	–	–
CCCCCc1cc2c(c3c1C(=O)OC(CC(C)=O)(c1ccc(OC)cc1)O3)[C@@H]1C=C(C)CC[C@H]1C(C)(C)O2 (stereo partly shown) [Compound 21b, 2-(4-methoxyphenyl)-8,8,11-trimethyl-2-(2-oxopropyl)-5-pentyl-8a,9,10,12a-tetrahydro-4H,8H-benzo[c][1,3]dioxino[4,5-f]chromen-4-one]	1000 to 4990 nM	1.00 fold	1000 to 4990 nM	1.00 fold	–	–	–	–
CCCCCc1cc2c(c3c1C(=O)OC(CC(C)=O)(c1ccc(Cl)cc1)O3)[C@@H]1C=C(C)CC[C@H]1C(C)(C)O2 (stereo partly shown) [Compound 23b, 2-(4-chlorophenyl)-8,8,11-trimethyl-2-(2-oxopropyl)-5-pentyl-8a,9,10,12a-tetrahydro-4H,8H-benzo[c][1,3]dioxino[4,5-f]chromen-4-one]	1000 to 4990 nM	1.00 fold	1000 to 4990 nM	1.00 fold	–	–	–	–
